According to patent US9590187B2, “Substituent-eliminable diketopyrrolopyrrole derivative, organic semiconductor material precursor solution, organic semiconductor material, and organic semiconductor material film” (RICOH COMPANY, LTD., priority 2013, dated 2017):

Legend:
[1] = Evaluation of solubility in organic solvents (saturated solution after reflux, cooling to room temperature, filtration, drying); format: physicochemical; conditions: reflux 10 minutes, cooled to room temperature, stand 16 hours, 0.2-μm PTFE filter
Experimental: Add each of the compounds obtained in the above Examples 1-6 to each of toluene, THF, and chloroform until it gets undissolved. Agitate each solution for 10 minutes under solvent reflux, then cool it to room temperature, further agitate it for 1 hour, and allow it to stand for 16 hours. Filter the supernatant liquid with a 0.2-μm PTFE filter to obtain a saturated solution. Dry the solution under reduced pressures to calculate solubility of each compound against each solvent. Evaluation criteria are as follows.
A: Solubility is 0.5% by weight or more.
B: Solubility is 0.05% by weight or more and less than 0.5% by weight.
C: Solubility is 0.005% by weight or more and less than 0.05% by weight.
D: Solubility is less than 0.005% by weight.

[2] = Thermogravimetric measurement of the elimination reaction (EXSTAR 6200, nitrogen atmosphere); format: physicochemical; conditions: observed within 190 to 210° C.
Experimental: (§1) Put the above-prepared substituent-eliminable derivative No. 6 (5 mg, 0.10 mmol) in an aluminum pan and heat it to 300° C. at a rate of 10° C./min with a thermal analysis instrument (EXSTAR 6200 from Seiko Instruments Inc.) under nitrogen atmosphere. Thus, a dark purple solid (3.8 mg) is obtained. m/z=704.1 (M+H).
as §1, with “No. 9” for “No. 6”, “mg, […]” for “mg, 0.10 mmol)”, “to 250°” for “to 300°”, “of 20°” for “of 10°”, “(M+H). The thermogravimetric measurement result is shown in FIG. 3.” for “(M+H).”
Repeat the procedures in Example 4 except for replacing the substituent-eliminable derivative No. 6 with No. 16 (5 mg, 4.6 μmol). Thus, a dark purple specific compound (4.2 mg) is obtained. m/z=872.2 (M+H).

[3] = heated to 300° C. at 10° C./min

SMILES | Decrease in weight (thermogravimetric) ([2]; heated to 250° C. at 20° C./min) | Decrease in weight (thermogravimetric) [2, 3] | Solubility in THF [1] | Solubility in Chloroform [1] | Solubility in Toluene [1]
CCCCC(CC)CN1C(=O)C2=C(c3ccc(-c4cccc(O)c4)s3)N(CC(CC)CCCC)C(=O)C2=C1c1ccc(-c2cccc(O)c2)s1 (stereo not drawn) [Specific Compound No. 9] | – | – | D (Solubility is less than 0.005% by weight.) | D (Solubility is less than 0.005% by weight.) | D (Solubility is less than 0.005% by weight.)
CCCCC(CC)CN1C(=O)C2=C(c3ccc(-c4ccc(-c5cccc(O)c5)s4)s3)N(CC(CC)CCCC)C(=O)C2=C1c1ccc(-c2ccc(-c3cccc(O)c3)s2)s1 (stereo not drawn) [Specific Compound No. 16] | – | – | D (Solubility is less than 0.005% by weight.) | D (Solubility is less than 0.005% by weight.) | D (Solubility is less than 0.005% by weight.)
CCCCC(CC)CN1C(=O)C2=C(c3ccc(-c4ccc(O)cc4)s3)N(CC(CC)CCCC)C(=O)C2=C1c1ccc(-c2ccc(O)cc2)s1 (stereo not drawn) [Specific Compound No. 6] | – | – | D (Solubility is less than 0.005% by weight.) | D (Solubility is less than 0.005% by weight.) | D (Solubility is less than 0.005% by weight.)

The next lines start with results.

Decrease in weight (thermogravimetric) ([2]; heated to 250° C. at 20° C./min) | Decrease in weight (thermogravimetric) [2, 3] | SMILES | Solubility in THF [1] | Solubility in Chloroform [1] | Solubility in Toluene [1]
21.2% | – | CCCCC(CC)CN1C(=O)C2=C(c3ccc(-c4cccc(OC(=O)OC(C)(C)C)c4)s3)N(CC(CC)CCCC)C(=O)C2=C1c1ccc(-c2cccc(OC(=O)OC(C)(C)C)c2)s1 (stereo not drawn) [Substituent-eliminable Derivative No. 9] | A (Solubility is 0.5% by weight or more.) | A (Solubility is 0.5% by weight or more.) | A (Solubility is 0.5% by weight or more.)
– | 21.5% | CCCCC(CC)CN1C(=O)C2=C(c3ccc(-c4ccc(OC(=O)OC(C)(C)C)cc4)s3)N(CC(CC)CCCC)C(=O)C2=C1c1ccc(-c2ccc(OC(=O)OC(C)(C)C)cc2)s1 (stereo not drawn) [Substituent-eliminable Derivative No. 6] | A (Solubility is 0.5% by weight or more.) | A (Solubility is 0.5% by weight or more.) | B (Solubility is 0.05% by weight or more and less than 0.5% by weight.)
– | 18.5% | CCCCC(CC)CN1C(=O)C2=C(c3ccc(-c4ccc(-c5cccc(OC(=O)OC(C)(C)C)c5)s4)s3)N(CC(CC)CCCC)C(=O)C2=C1c1ccc(-c2ccc(-c3cccc(OC(=O)OC(C)(C)C)c3)s2)s1 (stereo not drawn) [Substituent-eliminable Derivative No. 16] | A (Solubility is 0.5% by weight or more.) | A (Solubility is 0.5% by weight or more.) | A (Solubility is 0.5% by weight or more.)
